{"source": "patent US20230012936A1", "about": "“COMBINATION THERAPY USING GLUCAGON AND GLP-1 CO-AGONISTS FOR THE TREATMENT OF OBESITY” (MEDIMMUNE, LLC, priority 2019, published 2023)", "assay_type_in_all_cases": "in vivo, human", "key": {"[1]": {"assay": "Body weight, Phase 2a study", "method": "Body weight was measured during the screening period, at the start of the run—in period (Day −28), and prior to breakfast on Day 1 (predose) and Day 29. The subject should have taken off their shoes and remove bulky clothing. Calibrated scales were used.\nThe change and percent change in body weight from baseline (Day 1) to Day 29 (kg) were determined. The proportion of subjects achieving>5% body weight loss from baseline (Day 1) to Day 29 was also determined."}, "[2]": {"system": "overweight/obese subjects with Type 2 Diabetes Mellitus (T2DM)", "assay": "Fasting plasma glucose (FPG), Phase 2a study", "method": "The change in fasting plasma glucose (FPG) from baseline to Day 28 was assessed."}, "[3]": {"assay": "Safety: adverse events, laboratory values, vital signs, ECG", "method": "Blood samples were collected to evaluate anti-drug antibody (ADA) response to cotadutide. Serum samples were evaluated for ADA using a validated immunoassay. Adverse events (AEs) and serious adverse events (SAEs) were collected from the time of informed consent throughout the treatment period and including the follow-up period. AEs and SAEs were graded by severity and relationship to investigational product and SAEs were assessed for relationship to protocol procedures."}, "[4]": {"system": "overweight/obese subjects with Type 2 Diabetes Mellitus (T2DM)", "assay": "Pancreatic and incretin hormone profiles during the MMTT", "method": "Subjects were admitted to the unit on Day −2 and on Day 27. On Day −1 and on Day 28, following a minimum 10 hour fast, a blood sample for glucose metabolism panel (glucose, insulin, C-peptide, glucagon, and active GLP-1) was taken immediately prior to the subject drinking a standardized mixed meal (t=“0 minutes”). The subject then consumed a can of Ensure Plus, which is a nutritional supplement containing the components of fat, carbohydrate, and protein that make up a standard mixed-meal tolerance test (MMTT). After the meal, timed, serial blood samples were obtained for measurement of glucose and parameters related to glucose metabolism (with no additional food intake during this time). The MMTT was performed on Day-1 and Day 28.\nBlood samples for the glucose metabolism panel were drawn at t=“0 minutes” (before meal) and at 15, 30, 45, 60, 90, 120, 180, and 240 minutes (±5 minutes) after consumption of the standardized meal. Additional sampling for glucagon, insulin, C-peptide, and glucose was taken at 6, 8, 12, and 24 hours (±30 minutes) post-administration (t=“0 minutes”) of the standardized meal on Day −1 and 28.\nThe change and percent change from baseline (Day-1) to the end of the 28 days of treatment (Day 28) in glucose AUC0-4 h were determined as measured by the MMTT. In addition, the change from baseline (Day −1) to Day 28 in active GLP-1, glucagon, insulin, and C-peptide AUC0-4 h were also measured by MMTT.\nThe changes in insulin and C-peptide AUC004h from baseline to Day 28 were assessed. At baseline, the mean insulin AUC0-4 h was higher in the cotadutide group compared with the placebo group (91.768 vs 78.472 hr·mU/L, respectively). There was no meaningful difference from baseline in LS mean insulin AUC0-4 h at Day 28 between the cotadutide and placebo groups (−0.08 and 2.78 hr·mU/L, respectively; LS mean difference: −2.86 hr·mU/L; p=0.7760). At baseline, the mean C-peptide AUC0-4 h was similar in the cotadutide and placebo groups (11.278 vs 10.605 hr. μg/L, respectively). There was no meaningful difference from baseline in LS mean C-peptide AUC0-4 h at Day 28 between the cotadutide and placebo groups (0.32 and −0.29 hr. μg/L, respectively (LS mean difference: […]; p=0.4345)."}, "[5]": {"system": "overweight/obese subjects with Type 2 Diabetes Mellitus (T2DM)", "assay": "Hemoglobin A1c (HbA1c), Phase 2a study", "method": "The change in hemoglobin A1c (glycated hemoglobin; HbA1c) from baseline to Day 28 was assessed."}, "[6]": {"assay": "Pharmacokinetics of cotadutide in plasma (LC-MS/MS)", "quoted_text": "The Cmax and the corresponding tmax were identified from the observed data. Log-linear regression of the terminal phase yielded the terminal rate constant (λz). The area under the plasma concentration time-curve during the dosing interval (AUCτ) was calculated by the log-linear trapezoidal rule. The area under the curve to infinity (AUC0-inf) was calculated as the sum of AUC(o-t) and Ct/z, where Ct is the observed plasma concentration obtained from the log-linear regression analysis of the last quantifiable time point and z is the terminal phase rate constant. Clearance (CL/F) was determined by dose/AUC0-inf, and the terminal half-life (t1/2) was calculated as 0.693/λz."}, "[7]": {"system": "overweight/obese subjects with Type 2 Diabetes Mellitus (T2DM)", "assay": "Fasting free fatty acid (FFA) levels", "conditions": "Day 28 (300 μg); vs placebo", "method": "The changes in fasting free fatty acid (FFA) from baseline to the end of each dose level were assessed. Fasting FFA changes from baseline to Day 7 (100 μg), Day 14 (200 μg), or Day 28 (300 μg) were similar between treatment groups (LS mean difference at Day 28: −0.04 mEq/L; p=0.5322)."}}}
{"smiles": "CCCCCCCCCCCCCCCC(=O)N[C@@H](CCC(=O)NCCCC[C@H](NC(=O)[C@H](CC(=O)O)NC(=O)[C@H](CO)NC(=O)[C@@H](NC(=O)[C@H](Cc1ccccc1)NC(=O)[C@@H](NC(=O)CNC(=O)[C@H](CCC(N)=O)NC(=O)[C@H](CO)NC(=O)[C@@H](N)Cc1c[nH]cn1)[C@@H](C)O)[C@@H](C)O)C(=O)N[C@@H](CO)C(=O)N[C@@H](CCC(=O)O)C(=O)N[C@@H](Cc1ccc(O)cc1)C(=O)N[C@@H](CC(C)C)C(=O)N[C@@H](CC(=O)O)C(=O)N[C@@H](CO)C(=O)N[C@@H](CCC(=O)O)C(=O)N[C@@H](CCCNC(=N)N)C(=O)N[C@@H](C)C(=O)N[C@@H](CCCNC(=N)N)C(=O)N[C@@H](CC(=O)O)C(=O)N[C@@H](Cc1ccccc1)C(=O)N[C@H](C(=O)N[C@@H](C)C(=O)N[C@@H](Cc1c[nH]c2ccccc12)C(=O)N[C@@H](CC(C)C)C(=O)N[C@@H](CCC(=O)O)C(=O)N[C@@H](C)C(=O)NCC(=O)NCC(=O)O)C(C)C)C(=O)O", "note": "[Cotadutide]", "values": [{"measurement": "Body weight, Day 29 change from baseline, mean", "setting": "[1]; baseline (Day 1) to Day 29", "value": -3.06, "unit": "kg"}, {"measurement": "Body weight, Day 29 change from baseline, median", "setting": "[1]; baseline (Day 1) to Day 29", "value": -2.85, "unit": "kg"}, {"measurement": "Body weight, Day 29 percent change from baseline, mean", "setting": "[1]; baseline (Day 1) to Day 29", "value": "−3.30", "unit": "%"}, {"measurement": "Body weight, Day 29 percent change from baseline, median", "setting": "[1]; baseline (Day 1) to Day 29", "value": "−3.14", "unit": "%"}, {"measurement": "Proportion of subjects achieving >5% body weight loss", "setting": "[1]; baseline to Day 29, 3 subjects", "value": 12.5, "unit": "%"}, {"measurement": "Body weight, Day 29 change from baseline, LS mean", "setting": "[1]; baseline to Day 29, ANCOVA", "value": -3.16, "unit": "kg"}, {"measurement": "Body weight, Day 29 percent change from baseline, LS mean", "setting": "[1]; baseline to Day 29, ANCOVA", "value": "−3.33", "unit": "%"}, {"measurement": "Body weight, Day 29 change from baseline, LS mean difference", "setting": "[1]; baseline to Day 29, vs placebo", "value": -2.13, "unit": "kg"}, {"measurement": "Body weight, Day 29 percent change from baseline, LS mean difference", "setting": "[1]; baseline to Day 29, vs placebo", "value": "−2.26", "unit": "%"}, {"measurement": "Fasting plasma glucose, Day 28 (LOCF), mean", "setting": "[2]; Day 28 (LOCF), ITT", "value": 115.33, "unit": "mg/dL"}, {"measurement": "Fasting plasma glucose, Day 28 (LOCF), median", "setting": "[2]; Day 28 (LOCF), ITT", "value": 106.32, "unit": "mg/dL"}, {"measurement": "Fasting plasma glucose, change from baseline (LOCF), mean", "setting": "[2]; baseline to Day 28", "value": -34.24, "unit": "mg/dL"}, {"measurement": "Fasting plasma glucose, change from baseline (LOCF), median", "setting": "[2]; baseline to Day 28", "value": -43.25, "unit": "mg/dL"}, {"measurement": "Fasting plasma glucose, change from baseline (LOCF), LS mean", "setting": "[2]; baseline to Day 28, ANCOVA", "value": -34.15, "unit": "mg/dL"}, {"measurement": "Fasting plasma glucose, change from baseline (LOCF), LS mean difference", "setting": "[2]; baseline to Day 28, vs placebo", "value": -37.73, "unit": "mg/dL"}, {"measurement": "Incidence of treatment-emergent adverse events (TEAEs)", "setting": "[3]; As-treated, 28 days", "value": 52.0, "unit": "%"}, {"measurement": "Subjects with a TEAE that led to discontinuation of investigational product", "setting": "[3]; abdominal pain and vomiting", "value": "Two"}, {"measurement": "Incidence of investigational product-related TEAEs", "setting": "[3]; as judged by the investigator", "value": 40.0, "unit": "%"}, {"measurement": "Heart rate", "setting": "[3]; compared with the placebo group", "value": "increased heart rate was observed"}, {"measurement": "Blood pressure (BP)", "setting": "[3]; in vivo", "value": "No meaningful changes"}, {"measurement": "Hematology, serum chemistry, or urinalysis laboratory values", "setting": "[3]; in vivo", "value": "no clinically meaningful trends"}, {"measurement": "Severity of TEAEs", "setting": "[3]; in vivo", "value": "mild (Grade 1) or moderate (Grade 2)"}, {"measurement": "Electrocardiogram (ECG) parameters", "setting": "[3]; with the exception of heart rate", "value": "no clinically meaningful trends"}, {"measurement": "C-peptide AUC0-4 h, change from baseline, LS mean", "setting": "[4]; Day 28", "value": 0.32, "unit": "µg·h/L"}, {"measurement": "GLP-1 (active form) AUC0-4 h, change from baseline, LS mean", "setting": "[4]; Day 28", "value": -131.67, "unit": "ng·h/L"}, {"measurement": "Glucagon AUC0-4 h, change from baseline, LS mean", "setting": "[4]; Day 28", "value": -12.52, "unit": "ng·h/L"}, {"measurement": "Insulin AUC0-4 h, change from baseline, LS mean", "setting": "[4]; Day 28", "value": "−0.08", "unit": "hr·mU/L"}, {"measurement": "GLP-1 (active form) AUC0-4 h, change from baseline, LS mean difference", "setting": "[4]; Day 28, vs placebo", "value": -0.73, "unit": "ng·h/L"}, {"measurement": "Glucagon AUC0-4 h, change from baseline, LS mean difference", "setting": "[4]; Day 28, vs placebo", "value": 11.3, "unit": "ng·h/L"}, {"measurement": "Insulin AUC0-4 h, change from baseline, LS mean difference", "setting": "[4]; Day 28, vs placebo", "value": "−2.86", "unit": "hr·mU/L"}, {"measurement": "Hemoglobin A1c, Day 28, mean", "setting": "[5]; Day 28, ITT", "value": 6.75, "unit": "%"}, {"measurement": "Hemoglobin A1c, Day 28, median", "setting": "[5]; Day 28, ITT", "value": 6.65, "unit": "%"}, {"measurement": "Hemoglobin A1c, change from baseline, mean", "setting": "[5]; baseline to Day 28", "value": "−1.04", "unit": "%"}, {"measurement": "Hemoglobin A1c, change from baseline, median", "setting": "[5]; baseline to Day 28", "value": "−1.10", "unit": "%"}, {"measurement": "Hemoglobin A1c, change from baseline, LS mean", "setting": "[5]; baseline to Day 28, ANCOVA", "value": "−1.03", "unit": "%"}, {"measurement": "Hemoglobin A1c, change from baseline, LS mean difference", "setting": "[5]; baseline to Day 28, vs placebo", "value": "−0.58", "unit": "%"}, {"measurement": "Effect of dapagliflozin on cotadutide clinical PK", "setting": "[6]; cotadutide 100 to 300 μg/day", "value": "not affected by the presence of dapagliflozin"}, {"measurement": "half-life", "setting": "[6]; human, plasma, subcutaneous, 300 ug, across doses 100, 200 and 300 μg, read-out: Cotadutide half-life t1/2", "value": "8.8 to 9.1", "unit": "h"}, {"measurement": "Fasting FFA change from baseline, LS mean difference", "setting": "[7]", "value": "−0.04", "unit": "mEq/L"}]}
